In article PMC8214221, “Sequence determinants in the cathelicidin LL-37 that promote inflammation via presentation of RNA to scavenger receptors” (The Journal of Biological Chemistry, 2021):
Residues, ends and D or L forms follow the SMILES beside them.

Tests used:
[1] = tested on: S. aureus strain USA300 and SA112, GAS; test: Bacterial growth inhibition (OD600), Gram-positive strains; format: cell-based, Staphylococcus aureus; group A Streptococcus; details: 0-50 µM overnight, OD 600, n = 3, S. aureus USA300, SA113 (SA112 in text)
Protocol: (§1) We further looked at mRNA abundance by quantitative RT-PCR (qRT-PCR) to evaluate gene expression for type 1 interferon IFNB1, chemokine CXCL10, and cytokines TSLP and IL6 in NHEKs treated with selected LL-34 parent, LL-34—F5A, I24A, F27A, and L31A—peptides either alone or in combination with U1 dsRNA for 18 h (Fig. 1, E–H).
(§2) Methicillin-resistant S. aureus USA300 and methicillin-sensitive S. aureus SA113 (American Type Culture Collection 35556) were cultured in 3% tryptic soy broth overnight at 37 °C with shaking at 250 rpm. GAS M49 strain NZ131 was cultured in Todd Hewitt broth supplemented with 1% yeast extract overnight at 37 °C without shaking. E. coli R1 strain RS218 was cultured in LB broth overnight at 37 °C with shaking at 250 rpm. MIC values were determined using a round-bottom 96-well microdilution method with RPMI cell culture media (as a source of Ca^2+ and Mg^2+) supplemented with tryptic soy broth, Todd Hewitt broth/yeast extract, or LB to facilitate growth of the respective bacterial strains. Overnight bacterial cultures were subcultured into fresh broth and grown to midlate log phase indicated by an absorbance at 600 nm value between 0.8 and 1.0 for each bacterial strain. The absorbance was then normalized to provide a concentration of 1 × 10^7 colony-forming units/ml in RPMI medium. The LL-34 parent and alanine scan mutants were serially diluted into the 96-well microtiter plates containing prewarmed RPMI bacterial growth medium. A 10 μl aliquot of the midlate log phase bacteria was inoculated into the 96-well microtiter plates that contained 95 μl of RPMI medium with or without the LL-34 peptide dilutions and incubated for 16 to 18 h at […] with shaking at 200 rpm. Inhibition of growth was determined by measuring the absorbance at 600 nm readings of each well using a microplate reader (Infinite M200 Pro; Tecan). The MIC of each bacterial strain was determined by the lowest peptide concentration that inhibited more than 80% bacterial growth.
(§3) (A) NHEKs and HDMECs (B) were treated with LL34- parent peptide and all the 34 alanine substituted peptides (Pep L1A-Pep R34A) and LL37 at 2 µM for 16 h. IL-6 protein secretion was assessed with ELISA (n=3) (C-F) LL34-Parent, LL34 F5A, LL34 I24A, LL34 F27A, and LL34 L31A peptides were incubated with S. aureus USA 300, S. aureus SA113, Group A Streptococcus (GAS) and E. coli at increasing concentrations (0-50 µM) overnight, and bacterial culture growth was assayed as absorbance at OD 600 (n=3).

[2] = tested on: NHEKs, IL-6 secretion in response to U1 dsRNA; test: IL-6 secretion ELISA in NHEKs; format: cell-based, human; details: U1 dsRNA 2.5 μg/ml + peptide 2 μM, 18 h, n = 3
Summary of the method: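 NHEKs (also HDMECs) exposed to LL-34 parent or alanine-scan peptides at 2 μM, alone or with U1 dsRNA (2.5 μg/ml), for 18 h. Secreted IL-6 in supernatant quantified by sandwich ELISA (n = 3).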

[3] = tested on: NHEKs, IL6, IFNB1, TSLP, CXCL10 mRNA; test: qRT-PCR gene expression in NHEKs; format: cell-based, human; details: 18 h / 8 h (Fig. 1 legend), n = 3
Protocol: Protein levels of human IL-6 were analyzed from cell supernatant with ELISA (n = 3). Corresponding MIC values of LL-34 peptides L1A–R34A against Staphylococcus aureus USA300 are shown in the heat map. B, human dermal endothelial cells (HDMECs) were treated with either U1 dsRNA (2.5 μg/ml) or a combination of U1 dsRNA (2.5 μg/ml) and LL-34 peptides (Pep 1–Pep 34 and Pep–parent LL-34) at 2 μM for 18 h. IL-6 ELISA results are shown (n = 3). Green bars denote loss of IL-6 protein secretion compared with parent control shown in red. C, helical wheel plot for LL-34. Amino acids with green circles denote specific residues where replacement with an alanine caused the loss of IL-6 secretion compared with parent LL-34 peptide in NHEKs cotreated with U1 dsRNA. D, in the helical wheel plot for LL-34, circled green amino acids indicate that a substitution caused a loss of vetting in HDMEC. E–H, NHEKs were treated with LL-34-parent peptide (LL-34-P), LL-34-F5A, LL-34-I24A, LL-34-F27A, and LL-34-L31A at 2 μM, either individually or in combination with U1 dsRNA (2.5 μg/ml) for 8 h. Gene expression of IL-6, IFNB1, TSLP, and CXCL10 was assessed with qRT-PCR. GAPDH was used as a reference gene (n = 3) (∗p < 0.05; ∗∗∗∗p < 0.0001). One way-ANOVA was used. IL-6, interleukin 6; LL-34, 34-amino acid peptide; MIC, minimum inhibitory concentration, ns, not significant.
as §1
RNA extracted from cells (Pure Link RNA Isolation Kit; Life Technologies) was quantified on the Nanodrop 2000/200C Spectrophotometer (Thermo Fisher Scientific). About 500 ng of purified RNA was used to synthesize complementary DNA with iScript cDNA Synthesis Kit (Bio-Rad). Predeveloped Taqman (Thermo Fisher Scientific) gene expression assays were used to evaluate mRNA transcript levels. Taqman cycling conditions were used as previously described ([9], [45]). All experiments were performed on a CFX96 system (Bio-Rad). Fold change relative to GAPDH was calculated using the Livak ΔΔCt method ([46]).

Escherichia coli = test: Bacterial growth inhibition (OD600), E. coli; format: cell-based; details: 0-50 µM overnight, OD 600, n = 3
Protocol: as §1, §2, §3

[4] = tested on: normal human epidermal keratinocytes (NHEKs); test: LDH release cytotoxicity assay in keratinocytes; format: cell-based; details: minimal concentration giving 50% LDH release by NHEKs
Summary of the method: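 Normal human epidermal keratinocytes were exposed to LL-34 parent and alanine-substituted peptides. Cytotoxicity was read as LDH release in fresh culture supernatants after treatment, using a commercial kit, and reported as the minimal concentration showing toxicity.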

[5] = tested on: U1 dsRNA binding on the surface of NHEKs; test: Surface binding of Alexa 488-labeled U1 dsRNA to NHEKs; format: cell-based, human; details: Alexa 488 U1 0.05-10 μg/ml + peptide 2.5 μM, 10 min on ice; fluorometer RFU, n = 3
Protocol: We also assayed the dynamics of binding of U1 dsRNA on the surface of NHEKs in the presence of LL-34 mutant peptides. NHEKs were exposed to fluorescent Alexa 488–labeled U1 at increasing concentrations (0.05–10 μg/ml) and LL-34 parent peptide, LL-34 I24A, LL-34 L31A, LL-34 K25A, and LL-34 proline at isoleucine position 20 (I20P) for 10 min on ice to allow for surface binding of U1 to cells in the presence of peptides (Fig. 5A).
Figure 5 Biophysical properties of binding of U1 dsRNA to LL-34 peptides and SRB1 protein.A, NHEKs were treated with Alexa 488–labeled U1 dsRNA or a combination of Alexa 488–labeled U1 dsRNA (0.05–10 μg/ml) and LL-34 peptides LL-34 parent, LL-34 I24A, LL-34 K25A, LL-34 L31A, and LL-34 I20P at 2.5 μM as shown. The cells were prechilled on ice for 15 min before the addition of U1 dsRNA and/or LL-34 peptides, and the surface binding of U1 dsRNA was allowed for 10 min. The amount of U1 dsRNA binding to NHEKs was assessed with a fluorometer, and data are represented as relative fluorescence units (RFUs) (n = 3). B, NHEKs were similarly treated with Alexa-labeled U1 dsRNA (1.5 μg/ml) and/or unlabeled U1 dsRNA (15 μg/ml) with the addition of LL-34 parent peptide at 2.5 μM. The experiment was performed on ice for 10 min, and the relative binding of Alexa 488 U1 dsRNA was assessed on a fluorometer and is shown as RFU (n = 3) (∗p < 0.05) one-way ANOVA. C, SAXS spectra of LL-34 peptides LL-34 parent, LL-34 F5A, LL-34 I24A, and LL-34 L31A incubated with U1 dsRNA. The peptide-U1 dsRNA (P/R) ratio is varied at 1 and 2 for all conditions. The U1 dsRNA interhelical spacing (Q) was calculated by the peak position. The domain size (L) was calculated by the full width at half maximum of the first peak. LL-34, 34-amino acid peptide; NHEKs, normal human epidermal keratinocytes; SAXS, small-angle X-ray scattering.

Structure (SMILES) | Capacity to inhibit growth of Gram-positive bacteria [1] | IL-6 protein secretion, cotreatment with U1 dsRNA, vs U1 dsRNA + LL-34 parent [2] | Gene expression of IL6, IFNB1, and CXCL10, cotreatment with U1 dsRNA ([3]; U1 dsRNA 2.5 μg/ml + peptide 2 μM) | Gene expression of TSLP, peptide alone ([3]; peptide 2 μM alone, GAPDH reference) | Basal expression of IL6, IFNB1, and CXCL10, peptide alone ([3]; peptide 2 μM alone) | Action against Gram-negative E. coli (Escherichia coli) | Minimal cytotoxic concentration in NHEK (LD50) [4] [µM] | Binding of Alexa 488-labeled U1 dsRNA on the NHEK cell surface [5]
CC[C@H](C)[C@H](NC(=O)[C@H](CCCCN)NC(=O)[C@H](CCC(=O)O)NC(=O)[C@H](CCCCN)NC(=O)[C@H](CO)NC(=O)[C@H](CCCCN)NC(=O)[C@H](CCCNC(=N)N)NC(=O)[C@H](Cc1ccccc1)NC(=O)[C@H](Cc1ccccc1)NC(=O)[C@H](CC(=O)O)NC(=O)CNC(=O)[C@H](CC(C)C)NC(=O)[C@@H](N)CC(C)C)C(=O)NCC(=O)N[C@@H](CCCCN)C(=O)N[C@@H](CCC(=O)O)C(=O)N[C@@H](Cc1ccccc1)C(=O)N[C@@H](CCCCN)C(=O)N[C@@H](CCCNC(=N)N)C(=O)N[C@H](C(=O)N[C@H](C(=O)N[C@@H](CCC(N)=O)C(=O)N[C@@H](CCCNC(=N)N)C(=O)N[C@H](C(=O)N[C@@H](CCCCN)C(=O)N[C@@H](CC(=O)O)C(=O)N[C@@H](C)C(=O)N[C@@H](CC(C)C)C(=O)N[C@@H](CCCNC(=N)N)C(=O)N[C@@H](CC(N)=O)C(=O)N[C@@H](CC(C)C)C(=O)N[C@H](C(=O)N1CCC[C@H]1C(=O)N[C@@H](CCCNC(=N)N)C(=O)O)C(C)C)[C@@H](C)CC)C(C)C)[C@@H](C)CC [LL-34—F27A] (H-LLGDFFRKSKEKIGKEFKRIVQRIKDALRNLVPR-OH) | increased capacity to inhibit growth of most of the tested Gram-positive bacteria | reduced secretion of IL-6 protein | reduction in gene expression | increased gene expression of TSLP | not affected | little action | 10 | –
CC[C@H](C)[C@H](NC(=O)[C@H](CCCCN)NC(=O)[C@H](CCC(=O)O)NC(=O)[C@H](CCCCN)NC(=O)[C@H](CO)NC(=O)[C@H](CCCCN)NC(=O)[C@H](CCCNC(=N)N)NC(=O)[C@H](Cc1ccccc1)NC(=O)[C@H](Cc1ccccc1)NC(=O)[C@H](CC(=O)O)NC(=O)CNC(=O)[C@H](CC(C)C)NC(=O)[C@@H](N)CC(C)C)C(=O)NCC(=O)N[C@@H](CCCCN)C(=O)N[C@@H](CCC(=O)O)C(=O)N[C@@H](Cc1ccccc1)C(=O)N[C@@H](CCCCN)C(=O)N[C@@H](CCCNC(=N)N)C(=O)N[C@H](C(=O)N[C@H](C(=O)N[C@@H](CCC(N)=O)C(=O)N[C@@H](CCCNC(=N)N)C(=O)N[C@H](C(=O)N[C@@H](C)C(=O)N[C@@H](CC(=O)O)C(=O)N[C@@H](Cc1ccccc1)C(=O)N[C@@H](CC(C)C)C(=O)N[C@@H](CCCNC(=N)N)C(=O)N[C@@H](CC(N)=O)C(=O)N[C@@H](CC(C)C)C(=O)N[C@H](C(=O)N1CCC[C@H]1C(=O)N[C@@H](CCCNC(=N)N)C(=O)O)C(C)C)[C@@H](C)CC)C(C)C)[C@@H](C)CC [LL-34—K25A] (H-LLGDFFRKSKEKIGKEFKRIVQRIADFLRNLVPR-OH) | – | – | – | – | – | – | 10 | enhanced binding of U1 on the cell surface
